According to patent publication US10781215B2, “Heterobicyclic compounds useful as modulators of IL-12, IL-23 and/or IFNα responses” (BRISTOL-MYERS SQUIBB COMPANY, priority 2016, dated 2020):

Experiments:
[1] = molecular target: T1, human Tyk2 (amino acids 575-869, His-tagged) (Homo sapiens, UniProt P29597); assay: Probe displacement assay (SPA format); type: binding; settings: radiolabeled probe 40 nM, Tyk2 2.5 nM
T1 construct: made in house
Method: Probe Displacement Assay (SPA Format) The probe displacement assay is conducted as follows: In a […], test compounds along with recombinantly expressed His-tagged protein corresponding to amino acids 575-869 of human Tyk2 (sequence shown below) at 2.5 nM, 40 nM ((R)—N-(1-(3-(8-methyl-5-(methylamino)-8H-imidazo [4,5-d]thiazolo [5,4-b]pyridin-2-yl)phenyl)ethyl)-2-([^3H]methylsulfonyl)benzamide) (preparation described below) and 80 μg/mL Copper His-Tag scintillation proximity assay beads (Perkin Elmer, Catalog # RPNQ0095) in 50 mM HEPES, pH 7.5, containing 100 μg/mL bovine serum albumin and 5% DMSO were incubated for 30 minutes at room temperature. The amount of radiolabeled probe (preparation described below) bound to Tyk2 was then quantified by scintillation counting, and the inhibition by the test compound calculated by comparison to wells either with no inhibitor (0% inhibition) or without Tyk2 (100% inhibition). The EC50 value is defined as the concentration of test compound required to inhibit radiolabeled probe binding by 50%. Probe Displacement Assay (HTRF Format)

[2] = test system: IL-23 stimulated Kit225 T cells (STAT-dependent luciferase reporter); assay: Kit225 T cell assay, IL-23 stimulated STAT-dependent luciferase reporter; type: cell-based; settings: 20 ng/mL human recombinant IL-23, 5-6 hours
Method: (§1) Kit225 T cells with a stably-integrated STAT-dependent luciferase reporter were plated in RPMI (Gibco) containing 10% heat-inactivated FBS (Gibco) and 100 U/mL PenStrep (Gibco). The cells were then stimulated with either 20 ng/mL human recombinant IL-23 or 200 U/mL human recombinant IFNα (PBL InterferonSource) for 5-6 hours. Luciferase expression was measured using the STEADY-GLO® Luciferase Assay System (Promega) according to the manufacturer's instructions. Inhibition data were calculated by comparison to no inhibitor control wells for 0% inhibition and non-stimulated control wells for 100% inhibition. Dose response curves were generated to determine the concentration required to inhibit 50% of cellular response (IC50) as derived by non-linear regression analysis.

[3] = test system: IFNα stimulated Kit225 T cells (STAT-dependent luciferase reporter); assay: Kit225 T cell assay, IFNα stimulated STAT-dependent luciferase reporter; type: cell-based; settings: 200 U/mL human recombinant IFNα, 5-6 hours
Method: as §1

T1 sequence (P29597 with tags, fused parts or gaps): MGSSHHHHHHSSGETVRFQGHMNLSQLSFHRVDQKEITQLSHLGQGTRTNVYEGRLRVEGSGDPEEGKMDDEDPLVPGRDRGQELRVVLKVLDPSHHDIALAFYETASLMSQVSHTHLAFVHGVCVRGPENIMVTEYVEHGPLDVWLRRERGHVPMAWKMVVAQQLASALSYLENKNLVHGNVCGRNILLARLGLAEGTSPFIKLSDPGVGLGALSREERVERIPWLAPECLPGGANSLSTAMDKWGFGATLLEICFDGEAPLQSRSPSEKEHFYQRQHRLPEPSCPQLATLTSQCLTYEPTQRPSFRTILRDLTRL

SMILES | EC50 [1] [nM] | IC50 [2] [nM] | IC50 [3] [nM]
Cc1nc2c(Nc3ccccc3S(C)(=O)=O)nc(Nc3ccc(F)cc3)nc2[nH]1 [Example 1, N2-(4-fluorophenyl)-8-methyl-N6-(2-(methylsulfonyl)phenyl)-9H-purine-2,6-diamine] | 270 | 1410 | 4260
Cc1nc2c(Nc3ccccc3S(C)(=O)=O)cc(Nc3ccc(F)cn3)nc2[nH]1 [Example 2, N5-(5-fluoropyridin-2-yl)-2-methyl-N7-(2-(methylsulfonyl)phenyl)-3H-imidazo[4,5-b]pyridine-5,7-diamine] | 13 | 162 | 88
Cc1nc2c(Nc3ccccc3S(C)(=O)=O)cc(Nc3cc(C#N)ccn3)nc2[nH]1 [Example 3, 2-({7-[(2-methanesulfonylphenyl)amino]-2-methyl-3H-imidazo[4,5-b]pyridin-5-yl}amino)pyridine-4-carbonitrile] | 12 | 275 | 190
Cc1cc(Nc2cc(Nc3ccccc3S(C)(=O)=O)c3nc(C)[nH]c3n2)nc(C)n1 [Example 4, 5-N-(2,6-dimethylpyrimidin-4-yl)-7-N-(2-methanesulfonylphenyl)-2-methyl-3H-imidazo[4,5-b]pyridine-5,7-diamine] | 12 | 347 | 196
Cc1nc2c(Nc3ccccc3S(C)(=O)=O)cc(Nc3ccc(N4CCOCC4)cn3)nc2[nH]1 [Example 5, 7-N-(2-methanesulfonylphenyl)-2-methyl-5-N-[5-(morpholin-4-yl)pyridin-2-yl]-3H-imidazo[4,5-b]pyridine-5,7-diamine] | 11 | 190 | 161
COc1cnc(Nc2cc(Nc3ccccc3S(C)(=O)=O)c3nc(C)[nH]c3n2)cn1 [Example 6, 7-N-(2-methanesulfonylphenyl)-5-N-(5-methoxypyrazin-2-yl)-2-methyl-3H-imidazo[4,5-b]pyridine-5,7-diamine] | 37 | 447 | 371
Cc1nc2c(Nc3ccccc3S(C)(=O)=O)cc(NC(=O)C3CC3)nc2[nH]1 [Example 7, N-{7-[(2-methanesulfonylphenyl)amino]-2-methyl-3H-imidazo[4,5-b]pyridin-5-yl}cyclopropanecarboxamide] | 14 | 718 | 285
Cc1nc2c(Nc3ccccc3S(C)(=O)=O)cc(Nc3ccc(C(=O)N4CCOCC4)cn3)nc2[nH]1 [Example 8, 7-N-(2-methanesulfonylphenyl)-2-methyl-5-N-[5-(morpholine-4-carbonyl)pyridin-2-yl]-3H-imidazo[4,5-b]pyridine-5,7-diamine] | 21 | 1950 | 1470
Cc1nc2c(Nc3ccccc3S(C)(=O)=O)cc(Nc3ccc(N4CCC(C)(O)CC4)cn3)nc2[nH]1 [Example 9, 1-[6-({7-[(2-methanesulfonylphenyl)amino]-2-methyl-3H-imidazo[4,5-b]pyridin-5-yl}amino)pyridin-3-yl]-4-methylpiperidin-4-ol] | 17 | 854 | 564
Cc1nc2c(Nc3ccccc3S(C)(=O)=O)cc(Nc3ccc(C(F)(F)F)cn3)nc2[nH]1 [Example 10, 7-N-(2-methanesulfonylphenyl)-2-methyl-5-N-[5-(trifluoromethyl)pyridin-2-yl]-3H-imidazo[4,5-b]pyridine-5,7-diamine] | 13 | 143 | 190
Cc1ccc(Nc2cc(Nc3ccccc3S(C)(=O)=O)c3nc(C)[nH]c3n2)nn1 [Example 11, 7-N-(2-methanesulfonylphenyl)-2-methyl-5-N-(6-methylpyridazin-3-yl)-3H-imidazo[4,5-b]pyridine-5,7-diamine] | 10 | 875 | 463
Cc1nc2c(Nc3ccccc3S(C)(=O)=O)cc(Nc3cnc(C(F)(F)F)cn3)nc2[nH]1 [Example 12, 7-N-(2-methanesulfonylphenyl)-2-methyl-5-N-[5-(trifluoromethyl)pyrazin-2-yl]-3H-imidazo[4,5-b]pyridine-5,7-diamine] | 30 | 357 | 818
Cc1nc2c(Nc3ccccc3S(C)(=O)=O)cc(Nc3ccc(C#N)cn3)nc2[nH]1 [Example 13, 6-({7-[(2-methanesulfonylphenyl)amino]-2-methyl-3H-imidazo[4,5-b]pyridin-5-yl}amino)pyridine-3-carbonitrile] | 9 | 185 | 190
Cc1nc2c(Nc3ccccc3S(C)(=O)=O)cc(Nc3ccc(C(N)=O)cn3)nc2[nH]1 [Example 14, 6-({7-[(2-methanesulfonylphenyl)amino]-2-methyl-3H-imidazo[4,5-b]pyridin-5-yl}amino)pyridine-3-carboxamide] | 11 | 7860 | 6080
Cc1cnc(Nc2cc(Nc3ccccc3S(C)(=O)=O)c3nc(C)[nH]c3n2)cn1 [Example 15, 7-N-(2-methanesulfonylphenyl)-2-methyl-5-N-(5-methylpyrazin-2-yl)-3H-imidazo[4,5-b]pyridine-5,7-diamine] | 31 | 183 | 207
COc1ccc(Nc2cc(Nc3ccccc3S(C)(=O)=O)c3nc(C)[nH]c3n2)nc1 [Example 16, 7-N-(2-methanesulfonylphenyl)-5-N-(5-methoxypyridin-2-yl)-2-methyl-3H-imidazo[4,5-b]pyridine-5,7-diamine] | 14 | 90 | 128
Cc1nc2c(Nc3ccccc3S(C)(=O)=O)cc(Nc3cc(F)ccn3)nc2[nH]1 [Example 17, 5-N-(4-fluoropyridin-2-yl)-7-N-(2-methanesulfonylphenyl)-2-methyl-3H-imidazo[4,5-b]pyridine-5,7-diamine] | 15 | 104 | 128
COc1ccnc(Nc2cc(Nc3ccccc3S(C)(=O)=O)c3nc(C)[nH]c3n2)c1 [Example 18, 7-N-(2-methanesulfonylphenyl)-5-N-(4-methoxypyridin-2-yl)-2-methyl-3H-imidazo[4,5-b]pyridine-5,7-diamine] | 240 | 2400 | 3620
COc1ccc(Nc2cc(Nc3ccccc3S(C)(=O)=O)c3nc(C)[nH]c3n2)nn1 [Example 19, 7-N-(2-methanesulfonylphenyl)-5-N-(6-methoxypyridazin-3-yl)-2-methyl-3H-imidazo[4,5-b]pyridine-5,7-diamine] | 19 | 480 | 732
Cc1ccnc(Nc2cc(Nc3ccccc3S(C)(=O)=O)c3nc(C)[nH]c3n2)c1 [Example 20, 7-N-(2-methanesulfonylphenyl)-2-methyl-5-N-(4-methylpyridin-2-yl)-3H-imidazo[4,5-b]pyridine-5,7-diamine] | 53 | 407 | 401
Cc1ccc(Nc2cc(Nc3ccccc3S(C)(=O)=O)c3nc(C)[nH]c3n2)nc1 [Example 21, 7-N-(2-methanesulfonylphenyl)-2-methyl-5-N-(5-methylpyridin-2-yl)-3H-imidazo[4,5-b]pyridine-5,7-diamine] | 27 | 261 | 201
Cc1nc2c(Nc3ccccc3S(C)(=O)=O)cc(Nc3ccn(C)n3)nc2[nH]1 [Example 22, 7-N-(2-methanesulfonylphenyl)-2-methyl-5-N-(1-methyl-1H-pyrazol-3-yl)-3H-imidazo[4,5-b]pyridine-5,7-diamine] |  | 370 | 264
Cc1nc2c(Nc3ccccc3S(C)(=O)=O)cc(Nc3cccc(C(F)(F)F)n3)nc2[nH]1 [Example 23, 7-N-(2-methanesulfonylphenyl)-2-methyl-5-N-[6-(trifluoromethyl)pyridin-2-yl]-3H-imidazo[4,5-b]pyridine-5,7-diamine] | 5 | 81 | 44
Cc1cc(Nc2cc(Nc3ccccc3C(N)=O)c3nc(C)[nH]c3n2)nc(C)n1 [Example 33, 2-({5-[(2,6-dimethylpyrimidin-4-yl)amino]-2-methyl-3H-imidazo[4,5-b]pyridin-7-yl}amino)benzamide] |  | 1960 | 1220
Cc1nc2c(Nc3ccccc3C(N)=O)cc(Nc3ccc(N4CCOCC4)cn3)nc2[nH]1 [Example 34, 2-[(2-methyl-5-{[5-(morpholin-4-yl)pyridin-2-yl]amino}-3H-imidazo[4,5-b]pyridin-7-yl)amino]benzamide] |  | 4380 | 5120
